Reference: PubChem BioAssay AID463206 (Broad Institute, 2010)
The source made the active and inactive calls.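 The calls were made as follows: active = caspase luminescence falls with dose and the half-maximal concentration AC50 from the fitted curve is at or below a set limit; inconclusive = flat fit at 30 to 70% signal loss, or invalid fit; inactive = AC50 above the limit, or signal rises instead.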

tested on: INS-1E cytokine-induced caspase-3/7, Caspase-Glo luminescence, 48 h; assay: inhibitors of cytokine-induced caspase-3/7 activity, dose response, orthogonal assay for beta-cell apoptosis protection project, INS-1E rat cells, luminescence (AID 463206)

Compound | AC50
CN(C)CCCNc1cc(C(C)(C)C)nc2c(-c3ccccc3)cnn12 | > 26 µM (inactive)
N=c1c2c(-c3ccccc3)c(-c3ccccc3)n(Cc3ccco3)c2ncn1Cc1ccccc1 | > 26 µM (inactive)
Nc1nc(-c2ccccn2)nc(N)c1Cc1c(F)cccc1Cl | > 26 µM (inactive)
COC(=O)c1ccc2c(=O)n(-c3ccccc3)c(SCN3C(=O)c4ccccc4C3=O)nc2c1 | > 26 µM (inactive)
COc1cc(NC(=O)c2cc3ccccc3cc2O)c(OC)cc1Cl | > 26 µM (inactive)
N#C/C(=N\Nc1cccc([N+](=O)[O-])c1)C(=O)c1ccc(Br)cc1 | > 26 µM (inactive)
c1ccc(-[n+]2nc(Nc3cccc4ccccc34)sc2-c2c3ccccc3cc3ccccc23)cc1 | > 26 µM (inactive)
CC(=O)c1c(C)[nH]c(C(=O)OCc2cccc(Cl)c2)c1C | > 12 µM (inactive)
CCCCOc1cc(NCc2ccccc2)c2ncn(C(C)C)c2c1 | > 26 µM (inactive)
CC1=C(C)/C(=N\OS(=O)(=O)c2ccccc2)C=CC1=O | > 26 µM (inactive)
COc1ccccc1C(=O)Nc1nc(-c2ccc(S(=O)(=O)N3CCOCC3)cc2)cs1 | > 26 µM (inactive)
O=C(NNC(=O)c1cccnc1SCc1cccc([N+](=O)[O-])c1)c1ccc(F)cc1 | > 26 µM (inactive)
CC(=O)N1c2ccc(S(=O)(=O)N3CCC(C(=O)N4CCN(c5cccc(C(F)(F)F)c5)CC4)CC3)cc2CC1C (stereo not drawn) | > 26 µM (inactive)
Cc1ccc(Nc2c3c(nc4ccccc24)CCC3)cc1 | > 26 µM (inactive)
C=CCn1c(SCN2C(=O)c3ccccc3C2=O)nc2ccc(Cl)cc2c1=O | > 26 µM (inactive)
C=CCn1c(C)c(/C=C/c2cc[n+](C)cc2)c2ccccc21 | > 26 µM (inactive)
CCn1c(=O)c(C(=O)Nc2nc3ccccc3[nH]2)c(O)c2ccccc21 | > 26 µM (inactive)
Cc1ccc(-n2c(-c3ccccc3)c[n+]3c2CCC3)cc1 | > 26 µM (inactive)
C#CCOCCOCCOCCNc1nc(N2CCN(C(=O)CCCCCCCCCCNC(=O)[C@H]([C@@H](C)CC)n3cc(CCCCN=C(N)N)nn3)CC2)nc(N2CCN(C(=O)CCCCCCCCCCNC(=O)[C@H](CCCCN)n3cc(C)nn3)CC2)n1 | > 26 µM (inactive)
CCOc1ccccc1NC(=O)C(=O)N/N=C/c1cc(Br)ccc1O | > 26 µM (inactive)
O=C(N/N=C\c1c(O)ccc2ccccc12)c1ccc(Cn2cccn2)o1 | > 26 µM (inactive)
Cc1ccc2c(c1)[nH]c1c(N3CCN(Cc4ccccc4)CC3)ncnc12 | > 26 µM (inactive)
CCc1ccc(CN(C)C(=O)c2cc(COc3cccc4cnccc34)on2)cc1 | > 26 µM (inactive)
O=C(N/N=C/c1ccccc1O)c1cccc(C(F)(F)F)c1 | > 26 µM (inactive)

Compound | AC50
CN1/C(=C\C(=O)C[n+]2cccc(Br)c2)C(C)(C)c2ccccc21 | > 26 µM (inactive)
Cc1csc2c(N3CCN(C(=O)c4ccc(C(C)(C)C)cc4)CC3)ncnc12 | > 26 µM (inactive)
CCCCCc1cc(=O)oc2c(C(CCN3CCCCC3)c3ccc4c(c3)OCO4)c(OC)cc(OC)c12 (stereo not drawn) | > 26 µM (inactive)
O=C(CN(Cc1ccco1)Cc1ccco1)Nc1cc(S(=O)(=O)N2CCCCC2)ccc1Cl | > 26 µM (inactive)
O=C(c1cc(-c2cccc(Cl)c2)nc2ccccc12)N1CCN(c2ccccn2)CC1 | > 26 µM (inactive)
Nc1c(C(=O)Nc2ccc(S(=O)(=O)N3CCCC3)cc2)sc2nc3cc4c(cc3cc12)CCC4 | > 26 µM (inactive)
O=C1C(Nc2ccccc2)=C/C(=N/S(=O)(=O)c2cccs2)c2ccccc21 | > 26 µM (inactive)
O=C(Nc1nc(-c2ccccn2)cs1)c1cccc(-n2cnnn2)c1 | > 26 µM (inactive)
O=C(Nc1nc2ccccc2s1)c1cc(-c2ccccc2)nn1-c1ccccc1 | > 26 µM (inactive)
Oc1ccc(Br)cc1/C=N/Nc1ccccn1 | > 26 µM (inactive)
Cc1nc(N2CCN(C(=O)c3ccco3)CC2)c2c3c(sc2n1)CC(C)CC3 (stereo not drawn) | > 26 µM (inactive)
COc1ccc(CN2CCN(CCSc3ccc(C)cc3)CC2)c(OC)c1OC | > 26 µM (inactive)
Cc1ccccc1CS(=O)(=O)c1nnc([C@H](Cc2ccccc2)NC(=O)OC(C)(C)C)o1 | > 26 µM (inactive)
Cc1ccc(NC(=O)Cc2nn(C)c(=O)c3ccccc23)cc1F | > 26 µM (inactive)
COc1ccc(NS(=O)(=O)c2ccc(-c3coc(C)n3)cc2)cc1OC | > 26 µM (inactive)
Cc1ccc(C(=O)Nc2nc(-c3ccccn3)cs2)cc1S(=O)(=O)N1CCOCC1 | > 26 µM (inactive)
O=C(CNC(=O)c1ccc2c(c1)OCO2)N/N=C/c1cc(Br)ccc1O | > 26 µM (inactive)
CN(c1ccccc1)c1ccc(/C=C/[N+](=O)[O-])cc1 | > 26 µM (inactive)
CCCCCCCCCn1c2c(c(=N)c3c1CCC3)CCC2 | > 12 µM (inactive)
Cc1ccc2c(c1)N(C(=O)CCC(=O)NCCCN1CCC(Cc3ccccc3)CC1)CCO2 | 10.8 µM
O=C(Nc1ccc(OC(F)(F)F)cc1)Nc1cccc([N+](=O)[O-])c1 | > 26 µM (inactive)
CCOC(=O)c1nc(NNC(=O)c2ccc([N+](=O)[O-])cc2)sc1C | > 26 µM (inactive)
O=C(COc1ccccc1-c1ccccc1)N/N=C/c1ccc2ccccc2c1 | > 12 µM (inactive)
O=[N+]([O-])c1ccc(S(=O)(=O)c2ccccc2)nc1 | > 26 µM (inactive)

Compound | AC50
CC(=O)Nc1ccc(S(=O)(=O)NC2=C(N3CCN(c4ccc(F)cc4)CC3)C(=O)c3ccccc3C2=O)cc1 | > 26 µM (inactive)
O=[N+]([O-])c1ccccc1-c1cc(-c2ccccc2)cc(-c2ccccc2)[n+]1Cc1ccccc1Cl | > 26 µM (inactive)
O=C(CC1CC2CCC1C2)NCCc1ccc(Cl)cc1 (stereo not drawn) | > 26 µM (inactive)
Cc1cccc2nc(CSc3nc4[nH]ncc4c(=O)n3-c3cccc(Cl)c3)cc(=O)n12 | > 26 µM (inactive)
COc1ccc(CC(=O)Nc2nc(-c3ccc(F)c(F)c3)cs2)cc1OC | 26.5 µM
COc1ccc(CC(=O)Nc2ccncc2Cl)cc1 | > 26 µM (inactive)
O=C1C=C(N2CCOCC2)c2ccccc2C1=O | > 26 µM (inactive)
Cc1nc2ccccc2nc1N/N=C/c1ccc(O)cc1O | > 26 µM (inactive)
Cc1cc(C)n(-c2nc(NCCCO)c3c4c(sc3n2)CCCC4)n1 | > 26 µM (inactive)
Cc1ccc(/C=N/Nc2ccnc3cc(Cl)ccc23)c(C)c1 | > 12 µM (inactive)
COc1ccc2[nH]c3c(C)c4ccncc4c(C)c3c2c1 | 1.32 µM
O=C(Nc1ccc(Cl)cc1)Nc1nnc(CSCc2ccc(Cl)cc2)s1 | > 26 µM (inactive)
CC1=CC(C)(C)N(C(=O)CSc2nnc(-c3ccc(C)cc3)o2)c2ccc(C)cc21 | > 12 µM (inactive)
CCOC(=O)N1CCN(S(=O)(=O)c2ccc(C(=O)NNc3nc4ccc(Cl)cc4s3)cc2)CC1 | > 26 µM (inactive)
COc1ccc(OC)c(NC(=O)CN(Cc2ccc(F)cc2)C2CCCCC2)c1 | > 26 µM (inactive)
COc1ccc(C(=O)/C(C#N)=N/Nc2ccc([N+](=O)[O-])cc2)cc1 | > 26 µM (inactive)
COc1ccc2cc3[n+](cc2c1OC)CCc1cc2c(cc1-3)OCO2 | > 26 µM (inactive)
CC(C)CN(C(=O)COC(=O)C12CC3CC(CC(C3)C1)C2)c1c(N)n(Cc2ccccc2)c(=O)[nH]c1=O | > 26 µM (inactive)
Clc1ccc(CSc2ccc(-c3ccccn3)nn2)cc1 | > 26 µM (inactive)
O=C(Nc1ccc([N+](=O)[O-])cc1)Nc1nc(-c2ccc(Cl)s2)cs1 | > 26 µM (inactive)
Cc1nn(C)c(C)c1CN(C)S(=O)(=O)c1ccc2ccccc2c1 | > 26 µM (inactive)
O=[N+]([O-])c1ccc(O)c(/C=N/Nc2ccccn2)c1 | > 26 µM (inactive)
COc1cccc(/C=N/NC(=O)c2ccc(-c3ccccc3)cc2)c1O | > 26 µM (inactive)
COc1cc(C(=O)N/N=C(\C)c2ccccn2)cc(OC)c1OC | > 26 µM (inactive)

Compound | AC50
CC(=O)c1cccc(NS(=O)(=O)c2ccc(N/C=C/C(=O)c3ccc(F)cc3)cc2)c1 | > 26 µM (inactive)
CC#CC[N+](C)(C)CCCCCCCCCCCC | > 26 µM (inactive)
CCCCCn1c(=O)c(C(=O)Nc2nc3ccccc3[nH]2)c(O)c2ccccc21 | > 26 µM (inactive)
Cc1cc(C)nc(SCC(=O)NC2=NN=C(c3ccc(Br)cc3)CS2)n1 | > 26 µM (inactive)
O=C(N/N=C/c1ccc(O)cc1O)c1ccc(CN2C(=O)c3cccc4cccc2c34)cc1 | > 26 µM (inactive)
C=CCc1cccc(/C=N/NC(=O)CCC(=O)Nc2ccc(F)cc2)c1O | > 26 µM (inactive)
Cc1ccc(C)c(N2CCN(C(=O)CCCOc3cc(=O)n(C)c4ccccc34)CC2)c1 | > 12 µM (inactive)
CC1=NOC(=O)/C1=C/c1ccc(-c2ccc(Cl)cc2)o1 | > 26 µM (inactive)
COc1ccc(Nc2nc(N3CCCCC3)c3ccccc3n2)cc1 | 21.1 µM
O=C(/C=C/c1ccc(-c2ccccc2)cc1)NCc1cccnc1 | > 26 µM (inactive)
C=C(C)C(=O)O[C@H]1C/C(C)=C\C(=O)/C=C(\C)[C@H](O)[C@@H]2OC(=O)C(=C)[C@@H]21 | 3 µM
CN(C)C(=O)c1ccc(NC(=O)c2cccc(S(=O)(=O)N3CCCCCC3)c2)cc1 | > 26 µM (inactive)
CC(=O)NC(c1cccs1)c1cc([N+](=O)[O-])c2cccnc2c1O (stereo not drawn) | > 26 µM (inactive)
CCC1=NN(C(=O)c2ccccc2O)C(O)(c2ccccc2)C1 (stereo not drawn) | > 26 µM (inactive)
O=[N+]([O-])c1ccc(/C=N/n2cnc3ccccc32)s1 | > 26 µM (inactive)
CCN(CC)c1ccc(/C=N/NC(=O)c2nnn(-c3nonc3N)c2C(C)C)c(O)c1 | > 26 µM (inactive)
CN1C2CCC1/C(=C/c1ccccn1)C(=O)/C2=C\c1ccccn1 | > 26 µM (inactive)
COc1ccc(/C=N/Nc2cc(C)nc(-n3nc(C)cc3C)n2)cc1 | > 26 µM (inactive)
COC(=O)c1ccc(NC(=O)c2nc(S(=O)(=O)Cc3cccc(C)c3)ncc2Cl)cc1 | > 26 µM (inactive)
O=C(c1ccc([N+](=O)[O-])s1)N1CCN(c2cccc(Cl)c2)CC1 | > 26 µM (inactive)
COC(=O)C1=C(C)N(Cc2ccccc2)C(=NCc2cccc(C(F)(F)F)c2)N[C@H]1c1cccc(C(F)(F)F)c1 | > 26 µM (inactive)
